The test system of test [1] is DNA. Description: DNA crosslinking efficiency of psoralen reagents (general statements, no method given). Type of test: biochemical. The settings on record: studies conducted by the inventors.
Test [2] has as its system DNA. The settings on record: background statement on commercially available reagent; cited from earlier work.

Each structure is given as a SMILES string. Read-outs that look alike come from different tables or passages of the source.

Regarding `O=C(CCCOc1c2occc2cc2ccc(=O)oc12)ON1C(=O)CCC1=O` [SPB, succinimidyl-[4-(psoralen-8-yloxy)]butyrate], in the test on DNA [1], the DNA crosslinking efficiency entry is “very low”.

Consider `Cc1oc2c(C)c3oc(=O)cc(C)c3cc2c1COCCCCCCOP(OCCC#N)N(C(C)C)C(C)C` (centres unmarked) [Psoralen C6 Phosphoramidite, 6-[4′-(Hydroxymethyl)-4,5′,8-trimethylpsoralen]-hexyl-1-O-(2-cyanoethyl)-(N,N-diisopropyl)-phosphoramidite], for which, in the test on DNA [2], the DNA crosslinking efficiency result was “favorable DNA crosslinking efficiency”.

Values taken from US20260216336A1, “NEW PSORALEN COMPOUND” (NAGASAKI UNIVERSITY, priority 2022, published 2026).
